The results in this text go back to article PMC9791819 (Biochemistry and Biophysics Reports, 2022).

One test deals with T1, BiCMKEngA (Bifidobacterium longum, UniProt A0ACD7UKP5).
T1 sequence (A0ACD7UKP5 1-709): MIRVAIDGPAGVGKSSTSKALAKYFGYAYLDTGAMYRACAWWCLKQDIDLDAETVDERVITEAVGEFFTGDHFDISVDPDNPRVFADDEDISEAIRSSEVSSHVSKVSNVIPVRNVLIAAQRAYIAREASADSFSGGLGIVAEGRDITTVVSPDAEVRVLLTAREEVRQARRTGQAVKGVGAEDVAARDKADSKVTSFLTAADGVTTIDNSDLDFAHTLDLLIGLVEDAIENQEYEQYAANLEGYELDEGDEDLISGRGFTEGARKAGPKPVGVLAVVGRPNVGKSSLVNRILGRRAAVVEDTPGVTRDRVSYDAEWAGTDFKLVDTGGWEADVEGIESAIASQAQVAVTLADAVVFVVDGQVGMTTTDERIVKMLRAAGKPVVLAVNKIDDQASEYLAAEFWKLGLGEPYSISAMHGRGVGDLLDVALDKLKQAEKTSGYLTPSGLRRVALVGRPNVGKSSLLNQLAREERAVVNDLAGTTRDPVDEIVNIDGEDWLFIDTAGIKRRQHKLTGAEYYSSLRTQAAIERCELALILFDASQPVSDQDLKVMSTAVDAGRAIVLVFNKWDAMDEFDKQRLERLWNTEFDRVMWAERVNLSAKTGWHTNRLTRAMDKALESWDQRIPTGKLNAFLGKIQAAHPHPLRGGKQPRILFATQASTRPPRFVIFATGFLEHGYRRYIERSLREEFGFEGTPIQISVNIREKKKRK
The experiment in a line: isothermal titration calorimetry. Type of test: binding. Conditions: 10 mM Tris pH 8.0, 300 mM NaCl, 50 mM MgCl2, 25 °C; with or without 1 mM CMP. (In general: ITC needs no label: the signal is the heat of the interaction.)

Another test concerns the target T2, BiEngA (Bifidobacterium longum, UniProt A0ACD7UKP5).
T2 sequence (A0ACD7UKP5 222-709 limits assumed): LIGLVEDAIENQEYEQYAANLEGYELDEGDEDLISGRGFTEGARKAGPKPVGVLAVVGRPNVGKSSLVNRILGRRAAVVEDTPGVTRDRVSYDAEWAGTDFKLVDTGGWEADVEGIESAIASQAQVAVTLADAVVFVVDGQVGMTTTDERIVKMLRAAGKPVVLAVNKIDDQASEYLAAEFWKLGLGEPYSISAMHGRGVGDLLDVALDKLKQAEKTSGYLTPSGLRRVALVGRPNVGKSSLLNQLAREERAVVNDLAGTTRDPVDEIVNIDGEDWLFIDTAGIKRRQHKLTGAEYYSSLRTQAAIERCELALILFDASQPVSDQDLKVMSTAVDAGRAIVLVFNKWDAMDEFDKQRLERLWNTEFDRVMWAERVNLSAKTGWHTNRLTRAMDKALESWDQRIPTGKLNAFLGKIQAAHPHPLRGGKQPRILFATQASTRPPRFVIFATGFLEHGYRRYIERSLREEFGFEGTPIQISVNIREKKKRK
The experiment in a line: isothermal titration calorimetry. Type of test: binding. Conditions: 10 mM Tris pH 8.0, 300 mM NaCl, 50 mM MgCl2, 25 °C.

For the compound `Nc1ncnc2c1ncn2[C@@H]1O[C@H](COP(=O)(O)OP(=O)(O)OP(=O)(O)O)[C@@H](O)[C@H]1O` [ATP], the KD result at BiCMKEngA is “Relative dissociation constants of the full length and individual domains for ATP and GTP”.

As for `Nc1nc2c(ncn2[C@@H]2O[C@H](COP(=O)(O)OP(=O)(O)OP(=O)(O)O)[C@@H](O)[C@H]2O)c(=O)[nH]1` [GTP], the KD entry at BiEngA is on record as “the KD values for GTP, as determined from ITC experiments, were of the similar order”.
